Measured values: patent US11096931B2, “Amide derivatives useful in the treatment of HBV infection or HBV-induced diseases” (Janssen Sciences Ireland Unlimited Company, priority 2019, dated 2021)
In brackets after ≈: the same amount, converted by molar mass. Several values for one entry are separate records, joined by “and”; a condition that tells them apart may be missing. Equal entries are not always repeated. Where two headings read alike, the source gives them in different places.

Assays:
HBV = assay: anti HBV activity, HepG2.117 cell line, intracellular HBV DNA by real-time PCR; format: cell-based, hepatitis B virus; details: Hepatitis B virus, 72 h; mean value; HepG2.117 cells, 3 days of treatment, intracellular HBV DNA; read-out: HBV-AVE-HepG2.117_intra_EC50
Method: The anti HBV activity was measured using the HepG2.117 cell line, a stable, inducible HBV producing cell line, which replicates HBV in the absence of doxicycline (Tet-off system). The HepG2 cell line is available from ATCC® under number HB-8065. Transfection of the HepG2 cell line can be as described in Sun and Nassal 2006 Journal of Hepatology 45 (2006) 636-645 “Stable HepG2-and Huh7-based human hepatoma cell lines for efficient regulated expression of infectious hepatitis B virus”.
For the antiviral assay, HBV replication was induced, followed by a treatment with serially diluted compound in 96-well plates. After 3 days of treatment, the antiviral activity was determined by quantification of intracellular HBV DNA using real-time PCR and an HBV specific primer set and probe.

[1] = Cytotoxicity, ATPlite cell viability; format: cell-based; details: human, mean value, HepG2 or HepG2.117 cells
Method: Cytotoxicity of the compounds was tested using HepG2 or HepG2.117 cells, incubated for 4 days in the presence of compounds. The viability of the cells was assessed using the Perkin Elmer ATPlite Luminescence Assay System.”

[2] = Pharmacokinetics assessment in mice; format: in vivo, C57BL mice; details: mouse; for clearance / AUC(0-t) / Cmax: male, C57BL, plasma; for clearance: IV (PEG400) 2.5 mg/kg
Method: The pharmacokinetic profile was evaluated in fed male C57BL mice (n=3/group). Mice were i.v. injected with test compound at 2.5 mg/kg, formulated as solution in PEG400/water (70/30), and blood samples were collected from the dorsal metatarsal vein at 0.05, 0.117, 0.333, 1, 2, 4, 7, and 24 hours into EDTA-containing microcentrifuge tubes. Test compound was administered p.o. at 10 mg/kg and 50 mg/kg, formulated as solution in PEG400, and blood samples were collected from the dorsal metatarsal vein at 0.5, 1, 2, 4, 7, 12 and 24 hours into EDTA-containing microcentrifuge tubes. The blood samples were immediately centrifuged at 4° C. and the plasma was stored at −80° C. Compound concentrations from the plasma samples were analyzed using LC-MS/MS (LCMS-8050 instrument). Individual plasma concentration-time profiles were subjected to a non-compartmental pharmacokinetic analysis (NCA) using Phoenix™ WinNonlin version 6.1. (Certara, N.J., USA).

HT EQ solubility assay = format: physicochemical; details: read-out: HtEq Sol; for solubility thermodynamic at 24 h: stirred 24 h
Method: The assay was run in triplicate and was semi-automated using the Tecan Fluent for all liquid handling. 20 μL of 10 mM stock solution was dispensed in a 500 μL 96 well plate. DMSO was evaporated (Genevac). A stir bar and 400 μL of buffer/biorelevant media was added. The solution was stirred for 72 h (pH2 and pH7) or 24 h (FaSSIF and FeSSIF). The solution was filtered and the filtrate was quantified by UPLC/UV using a three-points calibration curve.

[3] = Thermodynamic solubility assay; format: physicochemical; details: organic solvent or mixture, thermodynamic from solid; thermodynamic solubility in PEG400
Method: To x mg of compound 500 μL of solvent was added (max. conc. y mg/mL). After 24 h/72 h shaking/stirring the solutions were filtered (0.45 μm membrane) and the pH was recorded. The filtrate was diluted to a maximum conc. of 100 μg/mL (CH3CN/0.1N HCl 1/1) and the samples were quantified by LC/UV. Calibration standards were 100 μg/mL, 10 μg/mL and 1 μg/mL.

[4] = buffer pH 2, aqueous buffer, thermodynamic from solid, pH = 2, stirred 72 h
[5] = buffer pH 7, aqueous buffer, thermodynamic from solid, pH = 7, stirred 72 h
[6] = thermodynamic from solid, Fessif
[7] = thermodynamic from solid, fassif

| Structure (SMILES) | EC50 (HBV) [nM] | CC50 at 4 days [1] [µM] | further results |
| --- | --- | --- | --- |
| Cc1c(C(=O)C(=O)NC2(c3c[nH]nn3)CC(F)(F)C2)c(C)n(C)c1C(=O)Nc1ccc(F)c(C#N)c1 [Compound 28] | 8 | > 50 | clearance [2]: 73.3 mL/min/kg; AUC(0-t) ([2]; PO (PEG400) 10 mg/kg): 153 ng·h/mL; Cmax ([2]; PO (PEG400) 10 mg/kg): 85 ng/mL; AUC(0-t) ([2]; PO (PEG400) 50 mg/kg): 1850 ng·h/mL; Cmax ([2]; PO (PEG400) 50 mg/kg): 1630 ng/mL; F ([2]; PO (PEG400) 10 mg/kg): 6.05 +/− 3.56%; F ([2]; PO (PEG400) 50 mg/kg): 14.6 +/− 12^ %; solubility thermodynamic at 72 h (HT EQ solubility assay; [4]): < 5 µM; solubility thermodynamic at 72 h (HT EQ solubility assay; [5]): < 5 µM; solubility thermodynamic at 24 h (HT EQ solubility assay; [6]): 277 µM (≈ 138 µg/mL); solubility thermodynamic at 24 h (HT EQ solubility assay; [7]): 46.8 µM (≈ 23.4 µg/mL); solubility [3]: > 33.9 mg/mL |
| Cc1c(C(=O)C(=O)NC2(c3cn[nH]n3)CC(F)(F)C2)cn(C)c1C(=O)Nc1ccc(F)c(C#N)c1 [Compound 12] | 10 | > 50 | solubility thermodynamic at 24 h (HT EQ solubility assay; Fessif): 41.2 µM and 25.1 µM; solubility thermodynamic at 24 h (HT EQ solubility assay; fassif): 10.2 µM and 5.4 µM |
| Cc1c(C(=O)C(=O)NC2(c3cn[nH]n3)CC(F)(F)C2)cn(C)c1C(=O)Nc1ccc(F)c(Cl)c1 [Compound 13] | 3 | 26.8 | clearance [2]: 10.2 mL/min/kg; AUC(0-t) ([2]; PO (PEG400) 10 mg/kg): 12500 ng·h/mL; Cmax ([2]; PO (PEG400) 10 mg/kg): 2480 ng/mL; F ([2]; PO (PEG400) 10 mg/kg): 77.3 +/− 19.8%; F ([2]; PO (PEG400) 50 mg/kg): 121 +/− 50%; solubility thermodynamic at 72 h (HT EQ solubility assay; [4]): 1.1 µM (≈ 0.544 µg/mL); solubility thermodynamic at 72 h (HT EQ solubility assay; [5]): < 0.6 µM; solubility thermodynamic at 24 h (HT EQ solubility assay; [6]): 150 µM (≈ 74.5 µg/mL); solubility thermodynamic at 24 h (HT EQ solubility assay; [7]): 39.8 µM (≈ 19.7 µg/mL); solubility [3]: > 36.4 mg/mL |
| Cn1cc(C(=O)C(=O)NC2(c3c[nH]cn3)CC(F)(F)C2)cc1C(=O)Nc1ccc(F)c(C#N)c1 [Compound 56] | 44 | 20 | – |
| Cc1c(C(=O)C(=O)NC2(c3cn[nH]n3)CC(F)(F)C2)c(F)c(C(=O)Nc2ccc(F)c(C#N)c2)n1C [Compound 42] | 2 | > 50 | – |
| Cn1cc(C(=O)C(=O)NC(CC(F)(F)F)c2cn[nH]n2)cc1C(=O)Nc1ccc(F)c(C#N)c1 (stereo not drawn) [Compound 20RS] | 61 | 12 | – |
| Cn1cc(C(=O)C(=O)N[C@]2(c3cn[nH]n3)C[C@H]2C(F)F)cc1C(=O)Nc1ccc(F)c(C#N)c1 (single isomer, unassigned) [27*S*S] | 92 | > 50 | – |
| Cc1c(C(=O)C(=O)N[C@]2(c3cn[nH]n3)C[C@@H](O)C2)cn(C)c1C(=O)Nc1ccc(F)c(C#N)c1 [Compound 58trans] | 88 | > 50 | – |
| Cn1cc(C(=O)C(=O)N[C@H](CC(F)F)c2cn[nH]n2)cc1C(=O)Nc1ccc(F)c(C#N)c1 (single isomer, unassigned) [24*R] | 46 | 9.4 | – |
| Cn1cc(C2(NC(=O)C(=O)c3cn(C)c(C(=O)Nc4ccc(F)c(Cl)c4)c3Cl)CC(F)(F)C2)nn1 [Compound 15] | 4 | > 50 | – |
| Cn1c(C(=O)Nc2ccc(F)c(C#N)c2)c(F)c(C(=O)C(=O)NC2(c3cn[nH]n3)CC(F)(F)C2)c1C1CC1 [Compound 52] | 9 | > 40.6 | – |
| Cn1cc(C(=O)C(=O)NC2(c3ncc[nH]3)CC(F)(F)C2)cc1C(=O)Nc1ccc(F)c(C#N)c1 [Compound 43] | 315 | 6.6 | – |
| Cc1c(C(=O)C(=O)N[C@]2(c3cn[nH]n3)C[C@@H](F)C2)cn(C)c1C(=O)Nc1ccc(F)c(C#N)c1 [Compound 57trans] | 7 | > 50 | – |
| Cc1c(C(=O)C(=O)N[C@]2(c3cn[nH]n3)C[C@H](O)C2)cn(C)c1C(=O)Nc1ccc(F)c(C#N)c1 [Compound 58cis] | 90 | > 50 | – |
| Cc1c(C(=O)C(=O)N[C@]2(c3cn[nH]n3)CCC(F)(F)C2)cn(C)c1C(=O)Nc1ccc(F)c(Cl)c1 (single isomer, unassigned) [25*R] | 3 | 18.6 | – |
| Cc1c(C(=O)C(=O)N[C@@](C)(c2cn[nH]n2)C(F)F)cn(C)c1C(=O)Nc1ccc(F)c(C#N)c1 (single isomer, unassigned) [48*S] | 4 | > 50 | – |
| Cn1cc(C(=O)C(=O)N[C@@]2(c3cn[nH]n3)CCC(F)(F)C2)cc1C(=O)Nc1ccc(F)c(C#N)c1 (single isomer, unassigned) [18*S] | 64 | 20.7 | – |
| Cc1c(C(=O)C(=O)NC2(c3cn[nH]n3)CC(F)(F)C2)cc(C(=O)Nc2ccc(F)c(C#N)c2)n1C [Compound 45] | 9 | > 50 | – |
| Cc1c(C(=O)C(=O)NC2(c3cn[nH]n3)CC(F)(F)C2)cn(C)c1C(=O)Nc1ccc(F)c(Br)c1 [Compound 34] | 4 | 26.3 | – |
| Cc1c(C(=O)C(=O)N[C@@H](CC(F)(F)F)c2cn[nH]n2)cn(C)c1C(=O)Nc1ccc(F)c(Cl)c1 (single isomer, unassigned) [26*S] | 18 | > 50 | – |
| Cc1c(C(=O)C(=O)N[C@H](CC(C)(F)F)c2cn[nH]n2)cn(C)c1C(=O)Nc1ccc(F)c(C#N)c1 (single isomer, unassigned) [49*R] | 16 | > 50 | – |
| Cc1c(C(=O)C(=O)N[C@@H](CC(C)(F)F)c2cn[nH]n2)cn(C)c1C(=O)Nc1ccc(F)c(C#N)c1 (single isomer, unassigned) [49*S] | 27 | > 50 | – |
| Cc1c(C(=O)C(=O)NC2(c3cn[nH]n3)CC(F)(F)C2)c(C#N)n(C)c1C(=O)Nc1ccc(F)c(Cl)c1 [Compound 55] | 809 | > 50 | – |
| Cc1c(C(=O)C(=O)NC2(c3cn[nH]n3)CC(F)(F)C2)cn(C)c1C(=O)Nc1ccnc(C(F)F)c1 [Compound 53] | 33 | > 50 | – |
| Cn1cc(C(=O)C(=O)NC2(c3ccccc3)CC(F)(F)C2)cc1C(=O)Nc1ccc(F)c(C#N)c1 [Compound 36] | 10 | 1.1 | – |
| Cn1cc(C(=O)C(=O)NC2(c3c[nH]nn3)CC2)cc1C(=O)Nc1ccc(F)c(C#N)c1 [Compound 10] | 150 | > 50 | – |
| Cc1c(C(=O)C(=O)N[C@H](CC(F)(F)F)c2cn[nH]n2)cn(C)c1C(=O)Nc1ccc(F)c(Cl)c1 (single isomer, unassigned) [26*R] | 7 | > 50 | – |
